Source: the NIST ThermoML archive (doi:10.1016/j.fluid.2014.10.044)
Numbers after ± are expanded uncertainties.

Assay: xn = mol fraction of the nth substance listed
Settings: 298.15 K, 101 kPa, Liquid; for viscosity: Concentric cylinders viscometry; for mass density: Vibrating tube method

`O=C(O)CO` [2-hydroxyethanoic acid] + C[N+](C)(C)CCO.[Cl-] gave a viscosity (x2 = 0.25) of 311.21 ± 19 mPa·s, a viscosity (x2 = 0.5) of 803.76 ± 74 mPa·s and a mass density (x2 = 0.25) of 1266.5 ± 0.9 kg/m3. For the same compound, the mass density (x2 = 0.5) was 1197.6 ± 1 kg/m3.
